Data on 1 compound can be found in publication PMC11842024, “Reversible male contraception by targeted inhibition of serine/threonine kinase 33” (Science (New York, N.Y.), 2024).

Structures are written as SMILES.

Data set [1] can be described thus: Deaths and body weight during treatment. The class given is in vivo, mice. The procedure:
using individual calibration curves established with the corresponding tissue homogenates from untreated mice. The calibration curve was regressed with a weight of 1/x2 with high linearity (r2 […]
Spatial distribution of CDD-2807 in testis. The testis from the mice treated with CDD-2807 were attached to the Leica CM3050 S cryostat (Leica Biosystems, Deer Park, IL) with water and then sectioned at the thickness of 10 μm at −20°C. The sections were attached to electrically conductive glass slides coated with indium tin oxide ([…], 70-100 ohms, Delta Technologies, Loveland, CO). Tissue sections were sprayed with a matrix solution containing 35 mg/mL 2,5-dihydroxybenzoic acid (DHB, Sigma, St. Louis, MO) in 70% aqueous CH3OH with 0.1% trifluoroacetic acid using an HTX TM-Sprayer (HTX Technologies LLC, Carrboro, NC). Sprayer nozzle temperature was set at 70°C, tray temperature at 40°C, nozzle velocity at 1200 mm/min, track spacing at 2 mm, drying time for 10 sec and nitrogen gas pressure at 10 psi. The data were collected on the Bruker TimsTOF MS MALDI-2 instrument with the resolution at 40 µm/pixel (mass range 100−1000 Da under the positive mode) using DHB ion as the on-line calibrant. The data was analyzed, and the images were plotted by SciLs Lab software (Bruker, Billerica, MA). […]
Alanine transaminase (ALT) and aspartate transaminase (AST) assays. […] ALT and AST levels were measured in duplicates using assay kits (StanBio, Boerne, TX) according to the manufacturer's instructions. ALT and AST levels were determined using the rate of NADH oxidation, which was quantified by measuring absorbance at 340 nm using a CLARIOstar plate reader (BMG Labtech in Cary, NC). ALT and AST were tested for significance at multiple collection time points, tests for significance included a test for normality (Shapiro-Wilk test) and following the test for normality were then analyzed using an unpaired t-test with significance determined by an alpha of P = 0.05. […]
Fertility analysis. […] Weights were measured daily prior to drug administration and monitored throughout the entirety of the injection period. […]

The target of the next data set is CLK4 (Homo sapiens, UniProt Q9HAZ1). Briefly: NanoBRET K192 assay (Promega). The class given is cell-based. Set-up: host or cells: HEK293 (HEK293T cultured). The settings on record: HEK293 cells. The procedure:
NanoBRET Target Engagement K192 assay. HEK293 cells (ATCC) were cultured in DMEM (Gibco) + 10% FBS (Seradigm) and incubated in a humidified 37°C/5% CO2 incubator. The NanoBRET Target Engagement K192 Kinase Selectivity System (Promega) contains 192 unique transfection-ready NanoLuc/Kinase fusions, pre-diluted in either transfection carrier DNA or relevant cyclin DNA. These NanoLuc/Kinase fusion constructs were transfected into HEK293 cells using Fugene HD (Promega) according to the manufacturer’s protocol. Briefly, 10 µL of a 20 µg/mL DNA solution was added to white, TC-treated 96-well assay plates (Corning), followed by 30 µL of a diluted Fugene HD solution (20 µL Fugene/1 mL Opti-MEM). After transfection complex formation, HEK293 cells were resuspended at 3.3 × 105 c/mL in Opti-MEM + 1% FBS and added at a volume of 60 µL per well, to result in approximately 20000 cells/well. Cells were incubated in a humidified 37°C/5% CO2 incubator for 20 hours. Tracer K-10 (Promega) was prepared at a 100× concentration in DMSO (Sigma) and diluted to a working concentration of 10× in tracer dilution buffer (12.5 mM HEPES, 31.25% PEG400, pH 7.5) (Promega). Test compounds were prepared as concentrated stock solutions in DMSO and diluted in Opti-MEM to prepare 10× working stocks. Cells were equilibrated with test compounds and Tracer K-10 for 2 hours prior to BRET measurements. For target engagement analysis, Tracer K-10 was added to cells at one of 4 […]
manufacturer’s protocol. To measure BRET, NanoBRET NanoGlo Substrate and Extracellular NanoLuc Inhibitor (Promega) were added according to the manufacturer’s protocol, and filtered luminescence was measured on a GloMax Discover luminometer equipped with 450 nm BP filter (donor) and 600 nm LP filter (acceptor), using 0.5 s integration time. Milli-BRET units are calculated by multiplying the raw BRET units by 1000.
For Fractional Occupancy determination, the following equation was used:
% Occupancy = [1-(X-Z)/(Y-Z)]×100
Where X = BRET in the presence of the test compound and Tracer K10, Y = BRET in the presence of Tracer K10 only, and Z = Full occupancy, or BRET in the absence of the test compound and […]
Tracer K10. […]
On the technique in general: Bioluminescence resonance energy transfer reports proximity on the nanometre scale.

Sequence of CLK4 (Q9HAZ1 whole entry, the tested form may be a part): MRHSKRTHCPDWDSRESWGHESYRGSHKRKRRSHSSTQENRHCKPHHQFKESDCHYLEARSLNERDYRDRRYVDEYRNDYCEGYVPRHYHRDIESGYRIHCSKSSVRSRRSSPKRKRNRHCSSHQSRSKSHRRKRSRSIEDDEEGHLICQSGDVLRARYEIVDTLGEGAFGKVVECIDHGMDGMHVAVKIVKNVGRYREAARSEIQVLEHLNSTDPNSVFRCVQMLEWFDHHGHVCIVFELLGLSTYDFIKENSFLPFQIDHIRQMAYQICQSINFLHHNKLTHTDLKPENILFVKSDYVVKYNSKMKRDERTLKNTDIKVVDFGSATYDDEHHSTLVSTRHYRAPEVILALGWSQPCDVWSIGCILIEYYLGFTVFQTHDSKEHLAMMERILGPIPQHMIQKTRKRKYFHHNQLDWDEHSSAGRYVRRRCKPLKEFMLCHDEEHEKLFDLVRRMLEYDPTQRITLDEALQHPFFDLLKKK

With `O=C(c1ccc2[nH]nc(C#Cc3ccccc3-c3ccccc3)c2c1)N1CC2(CCCNC2)C1` [CDD-2807], the mouse body weights in data set [1] (50 mg/kg/day for 7 days (Protocol 3)) was determined as 27.05 ± 0.79 g. In data set [1] (protocols 1 and 2), the “deaths during the period of treatment” value is reported as “no deaths” and the “weight changes during the period of treatment” value is listed as “no significant weight changes”. Also, on CLK4 (HEK293, at 1 µM), the receptor occupancy at 1 µM was 94.7 ± 0.1%. Also, the “NanoBRET K192 assay % Occupancy CLK4” value at CLK4 (at 1 µM) was over 80%.
